Laboratory results reported in PubChem BioAssay AID2037 (NMMLSC, 2009).

target: Cell division control protein 42 homolog (Homo sapiens) (UniProt P60953); test: blockade of fluorescent GTP uptake by Cdc42 wt – biochemical, bead-based multiplex flow cytometry, oxadiazole series, SAR follow-up (AID 2037); conditions: GST-Cdc42 beads, Bodipy-FL-GTP binding, Ki calculated from EC50
Sequence (P60953 whole entry, looked up): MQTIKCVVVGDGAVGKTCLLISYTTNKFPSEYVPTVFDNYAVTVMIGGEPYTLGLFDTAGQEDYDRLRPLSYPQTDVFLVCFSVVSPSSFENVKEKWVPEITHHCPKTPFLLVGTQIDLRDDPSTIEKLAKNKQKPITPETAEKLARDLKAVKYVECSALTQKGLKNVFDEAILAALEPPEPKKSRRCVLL

Row | SMILES | Ki [µM]
1 | COc1ccc(-c2noc(CCC(=O)N3CCC(c4cc(C)ccc4C)CC3)n2)cc1 | 0.3
2 | Cc1ccc(C)c(N2CCN(C(=O)CCc3nc(-c4ccc(Br)cc4)no3)CC2)c1 | 0.34
3 | Cc1ccc(C)c(N2CCN(C(=O)CCc3nc(-c4ccccc4C(F)(F)F)no3)CC2)c1 | 1.05
4 | Cc1ccc(C)c(N2CCN(C(=O)CCc3nc(-c4ccc(F)cc4)no3)CC2)c1 | 0.08
5 | Cc1ccc(C)c(N2CCN(C(=O)CCc3nc(-c4cccc(Cl)c4)no3)CC2)c1 | 0.46
6 | COc1ccc(-c2noc(CCC(=O)N3CCN(c4cccc(C(F)(F)F)c4)CC3)n2)cc1 | 0.41
7 | COc1ccc(-c2noc(CCC(=O)N3CCN(c4ccccc4F)CC3)n2)cc1 | 0.14
8 | COc1ccc(-c2cccc(CCC(=O)N3CCN(c4cc(C)ccc4C)CC3)c2)cc1 | 0.78
9 | COc1ccc(-c2noc(CCC(=O)N3CCN(c4cccc(C)c4C)CC3)n2)cc1 | 0.24
10 | Cc1ccc(C)c(N2CCN(C(=O)CCc3nc(-c4ccc(N(C)C)cc4)no3)CC2)c1 | 0.25
11 | COc1ccccc1-c1noc(CCC(=O)N2CCN(c3cc(C)ccc3C)CC2)n1 | 0.33
12 | COc1cccc(-c2noc(CCC(=O)N3CCN(c4cc(C)ccc4C)CC3)n2)c1 | 0.59
13 | COc1ccc(-c2noc(CCC(=O)N3CCN(c4ccccc4C(F)(F)F)CC3)n2)cc1 | 0.42
14 | COc1ccc(-c2noc(CCC(=O)N3CCN(c4ccccc4Cl)CC3)n2)cc1 | 0.17
15 | Cc1ccc(C)c(N2CCN(C(=O)CCc3nc(-c4ccc(C(F)(F)F)cc4)no3)CC2)c1 | 0.68
16 | COc1ccc(-c2coc(CCC(=O)N3CCN(c4cc(C)ccc4C)CC3)n2)cc1 | 0.48
17 | COc1ccc(-c2noc(CCC(=O)N3CCN(c4cc(C)ccc4C)CC3)n2)cc1 | 0.58
18 | Cc1ccc(C)c(N2CCN(C(=O)CCc3nc(-c4ccccc4)no3)CC2)c1 | 0.85
19 | Cc1ccc(-c2noc(CCC(=O)N3CCN(c4cc(C)ccc4C)CC3)n2)cc1 | 0.92
20 | Cc1ccc(C)c(N2CCN(C(=O)CCc3nc(-c4cccc(Br)c4)no3)CC2)c1 | 0.45
21 | Cc1ccc(C)c(N2CCN(C(=O)CCc3nc(-c4ccccc4Br)no3)CC2)c1 | 0.49
22 | COc1ccc(-c2noc(CCC(=O)N3CCN(c4ccc(OC)cc4)CC3)n2)cc1 | 0.1
23 | COc1ccc(-c2noc(CCC(=O)N3CCN(c4ccccc4C)CC3)n2)cc1 | 0.36
24 | COc1ccc(-c2noc(CCCC(=O)N3CCN(c4cc(C)ccc4C)CC3)n2)cc1 | 1.31
25 | Cc1ccc(C)c(N2CCN(C(=O)CCc3nc(-c4ccc(Cl)cc4)no3)CC2)c1 | 0.36
26 | COc1ccc(-c2noc(CCC(=O)N3CCN(c4ccc(C)cc4)CC3)n2)cc1 | 0.12
27 | COc1ccc(-c2noc(CCC(=O)N3CCN(c4ccccc4Br)CC3)n2)cc1 | 0.49
28 | COc1ccc(-c2noc(CCC(=O)N3CCN(c4cccc(OC)c4)CC3)n2)cc1 | 2.55
29 | Cc1cccc(-c2noc(CCC(=O)N3CCN(c4cc(C)ccc4C)CC3)n2)c1 | 0.22
